Laboratory results taken from patent publication US20230100789A1, “Method for activating AMPK and the use of Adenine” (Energenesis Biomedical Co., Ltd., priority 2013, published 2023).

Experiments:
[1] = test system: 6-mm full-thickness excisional skin wounds; experiment: Excisional skin wound healing and scar formation in mice; format: in vivo, C57BL/6J mice
Method: C57BL/6J mice were maintained at 22° C. under a 12-h light/dark cycle. The experiments were performed with 12-weeks old mice. After anesthetized by an intraperitoneal injection of ketamine (500 mg/kg) and xylazine (100 mg/kg), 6-mm full-thickness excisional skin wounds was made on the backs of mice using 6-mm skin biopsy punches. Immediately after wounding, 10-1200 M of adenine in 25 l saline or saline alone was applied to the wound bed. The skin wounds were then covered by semipermeable transparent dressing and fixed to the skin. The mice were treated with adenine or vehicle for 14 days and then sacrificed. The scar formation is assessed by Masson's trichrome staining to observe the fibrosis process and the collagen framework of the healed wound (Fixed by 4% paraformaldehyde).

IL-1β = experiment: LPS-induced inflammatory response in THP1 macrophage, secreted IL-1β (ELISA); format: cell-based, human; settings: THP1 macrophages, 50 ng LPS 6 hr
Method: (§1) Effects of adenine on inflammatory response were evaluated in human THP1 macrophage by examining protein level of intracellular COX-2 and secreted TNFα, IL-1β and IL-6. Differentiation of THP1 monocytes into macrophages was induced by 50 nM PMA for 24 hr. THP1 macrophages were further stimulated by 50 ng LPS for 6 hr in the presence of 10-600 μM of adenine or vehicle followed by cell lysis and western blot analysis. Equal amounts of protein were separated by SDS-PAGE and then electroblotted on to PVDF membranes. Membranes were blocked with 3% BSA in PBS for 60 min and incubated with an anti-COX-2 antibody (1:1,000, Cell signaling), an anti-actin antibody (1:5,000, Cell signaling) at 4° C. overnight followed by the corresponding secondary antibody for 1 h at room temperature (RT). Immunoreactive bands were detected by enhanced chemiluminescence (ECL; Pierce, Rockford, Ill., USA) and recorded using Kodak film (Rochester, N.Y., USA). The detected signals were scanned and then quantified using TotalLab Quant software (TotalLab). The secreted TNFα, IL-1β and IL-6 were analyzed by enzyme-linked immunosorbent assays.

LC3 = experiment: Autophagy assay in Neuro2A cells (LC3-II/LC3-I western blot); format: cell-based, mouse; settings: 24 h
Method: Amyloid β peptide and autophagy assay Effects of adenine on Amyloid β peptide were analyzed in mouse neuroblastoma cell Neuro2A. Neuro2A cells were cultured in high-glucose Dulbecco's modified Eagle's medium (DMEM) containing 10% fetal bovine serum (FBS), 4 mM L-glutamine, 2 mM sodium pyruvate and 1% penicillin/streptomycin (Invitrogen GibcoBRL, Carlsbad, Calif., USA) at 37° C. under 5% CO2. Cells were plated at 3×10^5 per well (6-well plate). 24 h after plating, cells were transfected with human APP695 and treated with indicated concentration of adenine for 24 h followed by cell lysis and western blot analysis. Equal amounts of protein were separated by SDS-PAGE and then electroblotted on to PVDF membranes. Membranes were blocked with 3% BSA in PBS for 60 min and incubated with an anti-Aβ antibody (1:1,000, abcam), an anti-LC3 antibody (1:1,000, Cell signaling), and an anti-actin antibody (1:5,000, Cell signaling) at 4° C. overnight followed by the corresponding secondary antibody for 1 h at room temperature (RT). Immunoreactive bands were detected by enhanced chemiluminescence (ECL; Pierce, Rockford, Ill., USA) and recorded using Kodakfilm (Rochester, N.Y., USA). The detected signals were scanned and then quantified by using TotalLab Quant software (TotalLab).
Because the conversion of LC3-I to LC3-II is indicative of autophagy activity, the higher LC3-II/LC3-I ratio in adenine treated cells reflects the ability of adenine to induce autophagy activity.

Aβ infusion mice = experiment: Aβ-induced Alzheimer's disease model mice, Morris water maze; format: in vivo, C57BL/6J mice; settings: daily IP 0.01, 0.1, 5 or 30 mg/kg for 4 weeks
Method: Aβ25-35 was purchased from Sigma-Aldrich (St. Louis, Mo.). The peptides were dissolved in distilled saline and aggregated by incubation at 37° C. for 7 days before injection. C57BL/6J mice were maintained at 22° C. under a 12-h light/dark cycle. Adult mice were anesthetized by ketamine (500 mg/kg) and xylazine (100 mg/kg) and placed in a stereotaxic frame (Stoelting, Wood Dale, Ill., USA). 5 nmol of the aggregated A1325-35 were injected into the lateral ventricle using a 10-μ1 Hamilton syringe (Hamilton Company, Reno, Nev., USA). The target anterior-posterior (AP), medial-lateral (ML) and dorsoventral coordinates were −0.5 mm, ±1 mm and −2.5 mm relative to the bregma. To evaluate the effect of adenine on neurodegenerative disease, Aβ infusion mice were daily intraperitoneally injected with 0.01, 0.1, 5 or 30 mg/kg bodyweight of adenine or vehicle for 4 weeks. The cognitive functions of these mice were analyzed by using Morris water maze assay after 4 weeks injection. The water maze was performed in a circular pool filled with water and a platform was submerged below the water's surface in the target quadrant for hidden platform test. […] Mice were allowed to swim in the maze for 60 s and recorded by a video camera. The latency to find the platform and swim paths were analyzed by EthoVision software (Version 3.1, Noldus, The Netherlands).

3T3 cells = experiment: Fibroblast proliferation assay (trypan blue cell counting); format: cell-based, Human; settings: 72 h, mean±SEM
Method: Human fibro blast cell line 3T3 were cultured in high-glucose Dulbecco's modified Eagle's medium (DMEM) containing 10% fetal bovine serum (FBS), 4 mM L-glutamine, 2 mM sodium pyruvate and 1% penicillin/streptomycin (Invitrogen GibcoBRL, Carlsbad, Calif., USA) at 37° C. under 5% CO2. For cell proliferation assay, 3T3 cells were plated at 1×10^5 per well (6-well plate). 24 h after plating, cells were treated with indicated concentration of adenine for 72 h and the number of viable cells was counted. Cells were detached using trypsin-EDTA solution and stained with trypan blue. The living cells were counted using hemocytometer. […] Data are presented as the mean±SEM of three independent experiments.

high-fat diet-fed mice = experiment: Anti-diabetic effects in high-fat diet-fed mice (type 2 diabetes model); format: in vivo, C57BL/6J mice; settings: IP 0.1 to 50 mg/kg twice a day for 6 days
Method: To further evaluate the effects of adenine on the modulation of plasma glucose level, the high-fat diet-fed mice were served as a type 2 diabetes animal model. C57BL/6J mice were maintained at 22° C. under a 12-h light/dark cycle and fed either a high fat diet (60% kcal % fat) or a normal diet ad libitum. Intraperitoneal injections of adenine (0.1 to 50 mg/kg) or vehicle were given to the high-fat diet-fed mice from the age of 24 weeks and glucose readings were measure at 1 and 3 hr. IP administration of adenine or vehicle only to the high-fat diet-fed mice continued twice a day for 6 days. On day 6, plasma was collected 1 hr after the last dosing for analyzing, evaluating, measuring plasma glucose and triglycerides.

TNFα = experiment: LPS-induced inflammatory response in THP1 macrophage, secreted TNFα (ELISA); format: cell-based, human; settings: THP1 macrophages, 50 ng LPS 6 hr
Method: as §1

With Nc1ncnc2nc[nH]c12 [Adenine, adenine] the scar width ([1]; topical adenine, 14 days post-wounding, vs vehicle treated wounds) was “significantly decreased the scar width”, the “extent of wound closure” value ([1]; topical, 10-1200 µM of adenine in 25 µl saline, 14 days of treatment, dose-dependent, vs control mice) was “significantly greater” and the “IL-1β•(% to control)” value (IL-1β; adenine 10 microM) was 91 ± 8.4 % to control. The “IL-1β•(% to control)” value (IL-1β; adenine 100 microM) was 29 ± 5.5 % to control, the “IL-1β•(% to control)” value (IL-1β; adenine 600 microM) was 17 ± 3.7 % to control and the “LC3-II/LC3-Iratio (relative to control)” value (LC3; adenine 10 microM) was 1.2 ± 0.1 relative to control. For the same molecule, the “LC3-II/LC3-Iratio (relative to control)” value (LC3; adenine 20 microM) was 1.8 ± 0.3 relative to control, the “LC3-II/LC3-Iratio (relative to control)” value (LC3; adenine 30 microM) was 2.8 ± 0.2 relative to control and the “LC3-II/LC3-Iratio (relative to control)” value (LC3; adenine 40 microM) was 2.9 ± 0.2 relative to control. For the same molecule, the “LC3-II/LC3-Iratio (relative to control)” value (LC3; adenine 50 microM) was 3.2 ± 0.3 relative to control, the “percentage time in target quadrant, probe assay” value (Aβ infusion mice) was “higher percentage time in target quadrant” and the “time to find platform, hidden platform test” value (Aβ infusion mice; dose-dependent) was “significantly shorter time to find platform”. For the same molecule, the “Cell number (% to control)” value (3T3 cells; adenine 10 microM) was 91 ± 2.7 % to control, the “Cell number (% to control)” value (3T3 cells; adenine 50 microM) was 73 ± 8.1 % to control and the “Cell number (% to control)” value (3T3 cells; adenine 100 microM) was 64 ± 5.3 % to control. The “Cell number (% to control)” value (3T3 cells; adenine 200 microM) was 48 ± 2.8 % to control, the “Cell number (% to control)” value (3T3 cells; adenine 500 microM) was 33 ± 6.4 % to control and the “Cell number (% to control)” value (3T3 cells; adenine 1000 microM) was 27 ± 11.3 % to control. The “lower body weight compare to the control group” value (high-fat diet-fed mice) was “more than 15%”, the “lower plasma glucose compare to the control group” value (high-fat diet-fed mice; plasma 1 hr after last dosing) was greater than 30% and the “lower plasma triacylglycerides compare to the control group” value (high-fat diet-fed mice; plasma 1 hr after last dosing) was “more than 35%”. For the same molecule, the “lower plasma glucose compare to the control group” value (high-fat diet-fed mice; plasma 1 hr after last dosing, listed as adenine) was “more than 30%”, the “TNF•(% to control)” value (TNFα; adenine 10 microM) was 85 ± 9.1 % to control and the “TNF•(% to control)” value (TNFα; adenine 100 microM) was 41 ± 2.6 % to control. The “TNF•(% to control)” value (TNFα; adenine 600 microM) was 23 ± 1.8 % to control.
